The target in one series is Dipeptidyl peptidase 4 (Homo sapiens, UniProt P27487). Nature of the series: Inhibition of DPP4 (unknown origin) assessed as hydrolysis rate using Gly-pro-p-nitroanilide as substrate measured after 20 mins incubation by fluorometric assay.
The species entered for series [1] is Rattus norvegicus. Description: Anti-diabetic activity in STZ-induced type 2 diabetes male Wistar albino rat model assessed as fasting blood glucose level measured on day 28. The format is functional.
For series [2], the species on record is Rattus norvegicus. Nature of the series: Anti-diabetic activity in STZ-induced type 2 diabetes male Wistar albino rat model assessed as fasting blood glucose level measured on day 1. In kind it is functional.
Series [3] can be described thus: Acute toxicity in Balb/C mouse assessed as changes in general appearance at 1250 to 2000 mg/kg, po. The format is organism-based. Conditions: in vivo, dose 1250-2000 mg/kg.
In series [4] the test system is Rattus norvegicus. Description: Antihyperlipidemic effect in STZ-induced type 2 diabetes male Wistar albino rat model assessed as triglyceride level at 10 mg/kg, po measured after 4 weeks (reference value: 190.23 +/- 4.37 mg/dL). In kind it is functional.
In the next series the target is Dipeptidyl peptidase 8 (Homo sapiens, UniProt Q6V1X1). Nature of the series: Inhibition of DPP8 (unknown origin) assessed as hydrolysis rate using Gly-pro-p-nitroanilide as substrate measured after 20 mins incubation by […] assay.
Dipeptidyl peptidase 8, sequence (Q6V1X1 whole entry): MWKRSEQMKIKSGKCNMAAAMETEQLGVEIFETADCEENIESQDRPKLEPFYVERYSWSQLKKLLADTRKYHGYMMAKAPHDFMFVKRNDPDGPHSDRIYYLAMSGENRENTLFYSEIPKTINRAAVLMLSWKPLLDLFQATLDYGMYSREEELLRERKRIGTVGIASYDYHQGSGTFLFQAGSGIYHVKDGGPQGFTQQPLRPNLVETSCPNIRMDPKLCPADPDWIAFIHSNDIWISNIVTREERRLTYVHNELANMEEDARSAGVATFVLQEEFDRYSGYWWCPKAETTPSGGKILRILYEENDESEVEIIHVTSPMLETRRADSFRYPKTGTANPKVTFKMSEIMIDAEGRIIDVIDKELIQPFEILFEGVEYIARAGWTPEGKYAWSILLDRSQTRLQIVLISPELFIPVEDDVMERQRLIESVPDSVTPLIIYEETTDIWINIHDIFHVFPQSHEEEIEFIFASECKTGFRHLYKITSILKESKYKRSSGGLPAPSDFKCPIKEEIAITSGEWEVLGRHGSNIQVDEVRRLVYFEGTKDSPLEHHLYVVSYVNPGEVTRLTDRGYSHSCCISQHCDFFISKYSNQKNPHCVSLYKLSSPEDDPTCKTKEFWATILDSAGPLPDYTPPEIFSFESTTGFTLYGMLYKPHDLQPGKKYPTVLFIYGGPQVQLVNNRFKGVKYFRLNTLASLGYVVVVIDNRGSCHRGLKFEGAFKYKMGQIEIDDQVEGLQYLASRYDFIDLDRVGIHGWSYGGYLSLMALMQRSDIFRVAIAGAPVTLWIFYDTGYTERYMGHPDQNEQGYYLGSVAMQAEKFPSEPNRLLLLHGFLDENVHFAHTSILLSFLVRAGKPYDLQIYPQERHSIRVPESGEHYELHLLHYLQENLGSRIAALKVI
Series [5] in a line: Acute toxicity in Balb/C mouse assessed as morphological changes in convulsions at 1250 to 2000 mg/kg, po. In kind it is organism-based. Conditions: in vivo, dose 1250-2000 mg/kg.
In series [6] the test system is Rattus norvegicus. Nature of the series: Anti-diabetic activity in normal Wistar rat model assessed as blood glucose level at 20 mg/kg, po followed by treated administered 3 mg/kg orally measured immediately after administration by Oral glucose tolerance test (reference value: 105.12 mg/dL). In kind it is functional.
Series [7] has as its system Rattus norvegicus. Description: Antihyperlipidemic effect in STZ-induced type 2 diabetes male Wistar albino rat model assessed as HDL level at 10 mg/kg, po measured after 4 weeks (reference value: 25.54 +/- 2.62 mg/dL). In kind it is functional.
In series [8] the test system is Rattus norvegicus. Description: Anti-diabetic activity in normal Wistar rat model assessed as blood glucose level at 10 mg/kg, po followed by treated administered 3 mg/kg orally measured after 90 mins by Oral glucose tolerance test (reference value: 134.11 + /- 4.64 mg/dL). In kind it is functional. Conditions: 1.5 h.
Series [9] relates to Rattus norvegicus. Description: Anti-diabetic activity in normal Wistar rat model assessed as blood glucose level at 20 mg/kg, po followed by treated administered 3 mg/kg orally measured after 60 mins by Oral glucose tolerance test (reference value: 153.74 + /- 3.94 mg/dL). The format is functional. Conditions: 1 h.
A short description of series [10]: Acute toxicity in Balb/C mouse assessed as morphological changes in unusual behavior at 1250 to 2000 mg/kg, po. The format is organism-based. Conditions: in vivo, dose 1250-2000 mg/kg.
The subject of series [11] is Rattus norvegicus. Nature of the series: Reduction of serum glutamate pyruvate transaminase (SGPT) level in STZ-induced type 2 diabetes male Wistar albino rat model at 20 mg/kg, po measured after 4 weeks by hepatic function test. The format is functional, organism-based.
In a further series the target is Dipeptidyl peptidase 9 (Homo sapiens, UniProt Q86TI2). Description: Inhibition of DPP9 (unknown origin) assessed as hydrolysis rate using Gly-pro-p-nitroanilide as substrate measured after 20 mins incubation by […] assay.
Dipeptidyl peptidase 9, sequence (Q86TI2 whole entry): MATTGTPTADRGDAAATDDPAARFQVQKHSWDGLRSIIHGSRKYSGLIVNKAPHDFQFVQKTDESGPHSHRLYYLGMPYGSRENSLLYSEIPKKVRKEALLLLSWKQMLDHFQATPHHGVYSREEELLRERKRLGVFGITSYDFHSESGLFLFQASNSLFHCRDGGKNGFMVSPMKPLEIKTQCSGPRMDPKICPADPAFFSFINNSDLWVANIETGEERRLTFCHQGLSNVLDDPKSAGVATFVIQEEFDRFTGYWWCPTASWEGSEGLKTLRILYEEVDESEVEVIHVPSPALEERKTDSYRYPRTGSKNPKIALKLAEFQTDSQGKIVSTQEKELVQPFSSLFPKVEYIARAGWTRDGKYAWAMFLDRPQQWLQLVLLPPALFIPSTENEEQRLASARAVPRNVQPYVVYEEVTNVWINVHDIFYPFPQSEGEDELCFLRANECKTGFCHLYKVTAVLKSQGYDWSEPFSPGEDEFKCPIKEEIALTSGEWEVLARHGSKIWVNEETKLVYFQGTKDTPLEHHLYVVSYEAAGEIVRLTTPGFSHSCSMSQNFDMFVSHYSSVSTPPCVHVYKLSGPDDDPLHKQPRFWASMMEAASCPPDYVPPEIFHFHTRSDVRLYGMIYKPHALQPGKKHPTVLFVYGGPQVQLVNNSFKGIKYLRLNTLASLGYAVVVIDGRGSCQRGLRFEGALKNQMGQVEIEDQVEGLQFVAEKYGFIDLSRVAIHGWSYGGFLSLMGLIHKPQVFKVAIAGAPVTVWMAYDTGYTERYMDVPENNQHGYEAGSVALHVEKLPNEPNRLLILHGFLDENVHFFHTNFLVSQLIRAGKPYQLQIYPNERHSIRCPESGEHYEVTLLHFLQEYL
Series [12] in a line: Acute toxicity in Balb/C mouse assessed as morphological changes in diarrhea at 1250 to 2000 mg/kg, po. The format is organism-based. Conditions: in vivo, dose 1250-2000 mg/kg.
In series [13] the test system is Rattus norvegicus. Nature of the series: Reduction of alkaline phosphatase (ALP) level in STZ-induced type 2 diabetes male Wistar albino rat model at 10 mg/kg, po measured after 4 weeks by hepatic function test. The format is functional, organism-based.
Series [14] deals with Rattus norvegicus. Nature of the series: Antihyperlipidemic effect in STZ-induced type 2 diabetes male Wistar albino rat model assessed as triglyceride level at 20 mg/kg, po measured after 4 weeks (reference value: 190.23 +/- 4.37 mg/dL). The format is functional.
The nature of series [15]: Acute toxicity in Balb/C mouse assessed as morphological changes in tremors at 1250 to 2000 mg/kg, po. The format is organism-based. Conditions: in vivo, dose 1250-2000 mg/kg.
The test system of series [16] is Rattus norvegicus. Nature of the series: Antihyperlipidemic effect in STZ-induced type 2 diabetes male Wistar albino rat model assessed as LDL level at 20 mg/kg, po measured after 4 weeks (reference value: 184.65 +/- 4.57 mg/dL). The format is functional.
The nature of series [17]: Acute toxicity in Balb/C mouse assessed as morphological changes in eyes at 1250 to 2000 mg/kg, po. In kind it is organism-based. Conditions: in vivo, dose 1250-2000 mg/kg.
Series [18] concerns Rattus norvegicus. Description: Reduction of serum glutamate oxaloacetate transaminase (SGOT) level in STZ-induced type 2 diabetes male Wistar albino rat model at 10 mg/kg, po measured after 4 weeks by hepatic function test. In kind it is functional, organism-based.
Series [19] deals with Rattus norvegicus. Nature of the series: Antihyperlipidemic effect in STZ-induced type 2 diabetes male Wistar albino rat model assessed as total cholesterol level at 20 mg/kg, po measured after 4 weeks (reference value: 227.04 +/- 4.10 mg/dL). The format is functional.
For series [20], the system named is Rattus norvegicus. Nature of the series: Anti-diabetic activity in normal Wistar rat model assessed as blood glucose level at 10 mg/kg, po followed by treated administered 3 mg/kg orally measured after 30 mins by Oral glucose tolerance test (reference value: […] 176.14 + /- 4.04 mg/dL). The format is functional. Conditions: 0.5 h.
The test system of series [21] is Rattus norvegicus. Description: Anti-diabetic activity in normal Wistar rat model assessed as blood glucose level at 20 mg/kg, po followed by treated administered 3 mg/kg orally measured after 30 mins by Oral glucose tolerance test (reference value: 176.14 + /- 4.04 mg/dL). The format is functional. Conditions: 0.5 h.
A short description of series [22]: Acute toxicity in Balb/C mouse assessed as morphological changes in salvation at 1250 to 2000 mg/kg, po. The format is organism-based. Conditions: in vivo, dose 1250-2000 mg/kg.
Series [23] concerns Rattus norvegicus. Description: Reduction of serum glutamate pyruvate transaminase (SGPT) level in STZ-induced type 2 diabetes male Wistar albino rat model at 10 mg/kg, po measured after 4 weeks by hepatic function test. The format is functional, organism-based.
Series [24] deals with Rattus norvegicus. Description: Antihyperlipidemic effect in STZ-induced type 2 diabetes male Wistar albino rat model assessed as HDL level at 20 mg/kg, po measured after 4 weeks (reference value: 25.54 +/- 2.62 mg/dL). The format is functional.
Series [25] has as its system Rattus norvegicus. Nature of the series: Anti-diabetic activity in normal Wistar rat model assessed as blood glucose level at 10 mg/kg, po followed by treated administered 3 mg/kg orally measured after 120 mins by Oral glucose tolerance test (reference value: 126.5 + /- 3.90 mg/dL). The format is functional. Conditions: 2 h.
The test system of series [26] is Rattus norvegicus. Nature of the series: Anti-diabetic activity in normal Wistar rat model assessed as blood glucose level at 20 mg/kg, po followed by treated administered 3 mg/kg orally measured after 90 mins by Oral glucose tolerance test (reference value: 134.11 + /- 4.64 mg/dL). In kind it is functional. Conditions: 1.5 h.
The subject of series [27] is Rattus norvegicus. Description: Anti-diabetic activity in normal Wistar rat model assessed as blood glucose level at 10 mg/kg, po followed by treated administered 3 mg/kg orally measured after 60 mins by Oral glucose tolerance test (reference value: 153.74 + /- 3.94 mg/dL). In kind it is functional. Conditions: 1 h.
The nature of series [28]: Acute toxicity in Balb/C mouse assessed as morphological changes in nose at 1250 to 2000 mg/kg, po. The format is organism-based. Conditions: in vivo, dose 1250-2000 mg/kg.
The test system of series [29] is Rattus norvegicus. Nature of the series: Anti-diabetic activity in normal Wistar rat model assessed as blood glucose level at 10 mg/kg, po followed by treated administered 3 mg/kg orally measured immediately after administration by Oral glucose tolerance test (reference value: 105.12 mg/dL). The format is functional.
Series [30] deals with Rattus norvegicus. Nature of the series: Antihyperlipidemic effect in STZ-induced type 2 diabetes male Wistar albino rat model assessed as LDL level at 10 mg/kg, po measured after 4 weeks (reference value: 184.65 +/- 4.57 mg/dL). In kind it is functional.
Series [31] is described as follows: Acute toxicity in Balb/C mouse assessed as morphological changes in fur at 1250 to 2000 mg/kg, po. Conditions: in vivo, dose 1250-2000 mg/kg. In kind it is organism-based.
Series [32] is described as follows: Acute toxicity in Balb/C mouse assessed as morphological changes in skin at 1250 to 2000 mg/kg, po. The format is organism-based. Conditions: in vivo, dose 1250-2000 mg/kg.
Series [33] has as its system Rattus norvegicus. Description: Reduction of insulin level in STZ-induced type 2 diabetes male Wistar albino rat model at 20 mg/kg, po measured after 4 weeks by hepatic function test. In kind it is functional, organism-based.
Series [34] relates to Rattus norvegicus. Nature of the series: Reduction of serum glutamate oxaloacetate transaminase (SGOT) level in STZ-induced type 2 diabetes male Wistar albino rat model at 20 mg/kg, po measured after 4 weeks by hepatic function test. In kind it is functional, organism-based.
Series [35] relates to Rattus norvegicus. Nature of the series: Anti-diabetic activity in normal Wistar rat model assessed as blood glucose level at 20 mg/kg, po followed by treated administered 3 mg/kg orally measured after 120 mins by Oral glucose tolerance test (reference value: 126.5 + /- 3.90 mg/dL). The format is functional. Conditions: 2 h.
Series [36] has as its system Rattus norvegicus. Description: Reduction of alkaline phosphatase (ALP) level in STZ-induced type 2 diabetes male Wistar albino rat model at 20 mg/kg, po measured after 4 weeks by hepatic function test. In kind it is functional, organism-based.
The subject of series [37] is Rattus norvegicus. Description: Antihyperlipidemic effect in STZ-induced type 2 diabetes male Wistar albino rat model assessed as total cholesterol level at 10 mg/kg, po measured after 4 weeks (reference value: 227.04 +/- 4.10 mg/dL). The format is functional.

Active and inactive are the calls of the source. No cut-off for these calls is given here.

Dipeptidyl peptidase 4, sequence (P27487 whole entry): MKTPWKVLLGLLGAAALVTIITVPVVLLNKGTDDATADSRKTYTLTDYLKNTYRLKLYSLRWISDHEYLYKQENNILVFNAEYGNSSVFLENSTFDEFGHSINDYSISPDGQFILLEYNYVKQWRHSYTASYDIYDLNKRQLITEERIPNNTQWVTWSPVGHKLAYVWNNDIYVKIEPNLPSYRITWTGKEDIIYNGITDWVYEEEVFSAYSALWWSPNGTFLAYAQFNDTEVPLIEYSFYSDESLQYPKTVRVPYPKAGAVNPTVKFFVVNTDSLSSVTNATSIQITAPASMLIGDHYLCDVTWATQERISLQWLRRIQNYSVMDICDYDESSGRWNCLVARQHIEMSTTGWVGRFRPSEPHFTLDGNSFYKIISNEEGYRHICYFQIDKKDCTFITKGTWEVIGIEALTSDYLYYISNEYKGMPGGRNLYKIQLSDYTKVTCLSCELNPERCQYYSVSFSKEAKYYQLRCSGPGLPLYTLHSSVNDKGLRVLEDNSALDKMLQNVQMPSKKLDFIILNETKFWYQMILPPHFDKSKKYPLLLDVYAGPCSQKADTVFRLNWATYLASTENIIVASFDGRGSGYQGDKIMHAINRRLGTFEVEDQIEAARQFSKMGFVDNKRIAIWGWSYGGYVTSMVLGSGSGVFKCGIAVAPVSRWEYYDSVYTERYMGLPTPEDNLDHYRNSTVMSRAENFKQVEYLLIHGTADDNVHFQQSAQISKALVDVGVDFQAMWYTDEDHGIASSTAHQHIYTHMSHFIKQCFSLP

Usually IC50 stands for the point on the concentration scale where inhibition reaches its midpoint. Turning to `CC1=C(CC(=O)N2CCCC2C#N)C(c2ccc(F)c(F)c2)NC(=O)N1` (stereo not drawn), the IC50 at Dipeptidyl peptidase 4 is 266 nM.

With `CC1=C([N+](=O)[O-])C(c2ccc(F)c(F)c2)N=C(N)N1C(=O)CN1CCC[C@H]1C(=O)O` (stereo partly drawn), at Dipeptidyl peptidase 4, the IC50 came to 2540 nM.

As for `CC1=C(C(=O)O)C(c2ccc(F)c(F)c2)N=C(N)N1C(=O)CN1CCCC1C#N` (stereo not drawn), the IC50 at Dipeptidyl peptidase 4 was found to be 390 nM.

In the case of `CC1=C(CC(=O)N2Cc3cn(S(C)(=O)=O)nc3C2)C(C)NC(=O)N1` (stereo not drawn), the half-maximal inhibitory concentration (IC50) at Dipeptidyl peptidase 4 amounted to 942 nM.

Turning to `CC1=C(C(=O)O)C(c2ccc(F)c(F)c2)N=C(N)N1C(=O)CN1CCC[C@H]1C(=O)O` (stereo partly drawn), at Dipeptidyl peptidase 4, the half-inhibitory concentration (IC50) amounted to 1060 nM.

Turning to `Cc1nc(N2Cc3cn(S(C)(=O)=O)nc3C2)nc(C)c1CC(=O)O`, the 50% inhibitory concentration (IC50) at Dipeptidyl peptidase 4 worked out at 769 nM.

Regarding `CS(=O)(=O)n1cc2c(n1)CN([C@H]1CO[C@H](c3cc(F)ccc3F)[C@@H](N)C1)C2` [OMARIGLIPTIN], the Activity worked out at 105 mg/dL in the series filed under Rattus norvegicus [1] and 293 mg/dL in the series listed under Rattus norvegicus [2].

In the case of `CC1=C([N+](=O)[O-])C(c2ccc(F)c(F)c2)N=C(N)N1C(=O)CN1CCn2c(nnc2C(F)(F)F)C1` (stereo not drawn), the Activity result is “Non-Toxic” in series [3]; 149.76 mg/dL with Rattus norvegicus [4]; “Non-Toxic” in [5]; 103.88 mg/dL in the series on Rattus norvegicus [6]; 46.34 mg/dL in the series with Rattus norvegicus [7]; 109.45 mg/dL in the series with Rattus norvegicus [8]. Besides, the Activity was 115.67 mg/dL in the series on Rattus norvegicus [9]; “Non-Toxic” in series [10]; “Non-Toxic” in series [12]; 119.45 mg/dL with Rattus norvegicus [14]; “Non-Toxic” in series [15]; 115.89 mg/dL in the series with Rattus norvegicus [16]. For the same compound, the Activity result in series [17] is “Non-Toxic”; in the series with Rattus norvegicus [19] it was 137.56 mg/dL; in the series with Rattus norvegicus [20], 120.87 mg/dL; in the series with Rattus norvegicus [21], 117.46 mg/dL; in series [22], “Non-Toxic”; in the series with Rattus norvegicus [24], 54.23 mg/dL. The Activity in the series on Rattus norvegicus [25] was 113.91 mg/dL; with Rattus norvegicus [26] it was 107.56 mg/dL; with Rattus norvegicus [27], 117.43 mg/dL; in series [28], “Non-Toxic”; with Rattus norvegicus [29] it was 104.01 mg/dL; in the series with Rattus norvegicus [30], 134.87 mg/dL. The Activity result is “Non-Toxic” in series [31], “Non-Toxic” in series [32], 111.1 mg/dL in the series on Rattus norvegicus [35] and 154.87 mg/dL in the series with Rattus norvegicus [37]. The IC50 on Dipeptidyl peptidase 8 was 1340 nM; at Dipeptidyl peptidase 9 it was 1970 nM; on Dipeptidyl peptidase 4, 85 nM. The result in the series with Rattus norvegicus [11], in the series with Rattus norvegicus [13], in the series on Rattus norvegicus [18], in the series with Rattus norvegicus [23], with Rattus norvegicus [33] and in the series on Rattus norvegicus [34] was Active. Further, the result in the series on Rattus norvegicus [36] was Active.

In the case of `Cc1nc(N2CCCC2C#N)nc(C)c1CC(=O)O` (stereo not drawn), the half-maximal inhibitory concentration (IC50) at Dipeptidyl peptidase 4 was determined as 1230 nM.

Regarding `CC1=C([N+](=O)[O-])C(c2ccc(F)c(F)c2)N=C(N)N1C(=O)CN1CCCC1C#N` (stereo not drawn), the 50% inhibitory concentration (IC50) at Dipeptidyl peptidase 4 was determined as 710 nM.
